{"source": "paper PMC2586070", "about": "(Peptides, 2008)", "tested_on": "blood-brain barrier (BBB)", "format": "in vivo, male CD-1 mice", "note": "Where no end group is shown, it is not given here."}
{"compound": "CNC[C@H](O)c1ccc(O)c(O)c1", "note": "[Epinephrine]", "values": [{"measurement": "effect on I-Ghr uptake across the BBB", "setting": "epinephrine 40 nmol/mouse in the iv injection, 8 week old mice", "result": "no effect"}]}
{"compound": "I-Ghr: Human ghrelin radioactively labeled with 131I by the chloramine-T method, purified by reverse-phase HPLC (GSSFLSPEHQRVQQRKESKKPPAKLQPR; ends and bridges not checked; also: 131I radiolabel, site not given here; UniProt Q9UBU3 24-51, looked up)", "values": [{"measurement": "effect of 48 h fasting on Ki of I-Ghr vs fed animals", "setting": "mouse, in vivo, iv", "result": "arithmetic increase"}]}
{"compound": "triolein", "values": [{"measurement": "enhancement of I-Ghr transport across the BBB", "setting": "triolein 7.2 mg/mouse iv with I-Ghr, 8 week old mice", "result": "over 70%"}]}
